Results from the NIST ThermoML archive (doi:10.1016/j.jct.2012.06.012).

Assay: xn = mol fraction of the nth substance listed
Conditions: Liquid, Vibrating tube method

CCCCCCCCCC [decane] + CCO
Conditions	mass density [kg/m3]
362.64 K, 11000 kPa, x2 = 0.1011	686.5
362.64 K, 11000 kPa, x2 = 0.4963	692.75
362.64 K, 11000 kPa, x2 = 0.9014	719.95
362.64 K, 12000 kPa, x2 = 0.1011	687.56
362.64 K, 12000 kPa, x2 = 0.4963	693.89
362.64 K, 12000 kPa, x2 = 0.9014	721.13
362.64 K, 13000 kPa, x2 = 0.1011	688.62
362.64 K, 13000 kPa, x2 = 0.4963	694.99
362.64 K, 13000 kPa, x2 = 0.9014	722.28
362.64 K, 14000 kPa, x2 = 0.1011	689.68
362.64 K, 14000 kPa, x2 = 0.4963	696.14
362.64 K, 14000 kPa, x2 = 0.9014	723.43
362.64 K, 15000 kPa, x2 = 0.1011	690.66
362.64 K, 15000 kPa, x2 = 0.4963	697.17
362.64 K, 15000 kPa, x2 = 0.9014	724.55
362.64 K, 16000 kPa, x2 = 0.1011	691.66
362.64 K, 16000 kPa, x2 = 0.4963	698.23
362.64 K, 16000 kPa, x2 = 0.9014	725.65
362.64 K, 17000 kPa, x2 = 0.1011	692.65
362.64 K, 17000 kPa, x2 = 0.4963	699.27
362.64 K, 17000 kPa, x2 = 0.9014	726.75
362.64 K, 18000 kPa, x2 = 0.1011	693.62
362.64 K, 18000 kPa, x2 = 0.4963	700.3
362.64 K, 18000 kPa, x2 = 0.9014	727.82
362.64 K, 19000 kPa, x2 = 0.1011	694.56
362.64 K, 19000 kPa, x2 = 0.4963	701.3
362.64 K, 19000 kPa, x2 = 0.9014	728.87
362.64 K, 20000 kPa, x2 = 0.1011	695.5
362.64 K, 20000 kPa, x2 = 0.4963	702.3
362.64 K, 20000 kPa, x2 = 0.9014	729.9
362.65 K, 1000 kPa, x2 = 0.0937	675.13
362.65 K, 2000 kPa, x2 = 0.0937	676.3
362.65 K, 3000 kPa, x2 = 0.0937	677.46
362.65 K, 4000 kPa, x2 = 0.0937	678.6
362.65 K, 5000 kPa, x2 = 0.0937	679.76
362.65 K, 6000 kPa, x2 = 0.0937	680.91
362.65 K, 7000 kPa, x2 = 0.0937	682.04
362.65 K, 8000 kPa, x2 = 0.0937	683.16
362.65 K, 9000 kPa, x2 = 0.0937	684.25
362.65 K, 10000 kPa, x2 = 0.0937	685.35
362.65 K, 11000 kPa, x2 = 0.0937	686.41
362.65 K, 12000 kPa, x2 = 0.0937	687.48
362.65 K, 13000 kPa, x2 = 0.0937	688.51
362.65 K, 14000 kPa, x2 = 0.0937	689.55
362.65 K, 15000 kPa, x2 = 0.0937	690.57
362.65 K, 16000 kPa, x2 = 0.0937	691.56
362.65 K, 17000 kPa, x2 = 0.0937	692.56
362.65 K, 18000 kPa, x2 = 0.0937	693.53
362.65 K, 19000 kPa, x2 = 0.0937	694.47
362.65 K, 20000 kPa, x2 = 0.0937	695.39
362.71 K, 1000 kPa, x2 = 0.7526	692.67
362.71 K, 2000 kPa, x2 = 0.7526	693.99
362.71 K, 3000 kPa, x2 = 0.7526	695.3
362.71 K, 4000 kPa, x2 = 0.7526	696.58
362.71 K, 5000 kPa, x2 = 0.7526	697.86
362.71 K, 6000 kPa, x2 = 0.7526	699.12
362.71 K, 7000 kPa, x2 = 0.7526	700.37
362.71 K, 8000 kPa, x2 = 0.7526	701.6
362.71 K, 9000 kPa, x2 = 0.7526	702.81
362.71 K, 10000 kPa, x2 = 0.7526	704.01
362.71 K, 11000 kPa, x2 = 0.7526	705.19
362.71 K, 12000 kPa, x2 = 0.7526	706.37
362.71 K, 13000 kPa, x2 = 0.7526	707.51
362.71 K, 14000 kPa, x2 = 0.7526	708.68
362.71 K, 15000 kPa, x2 = 0.7526	709.76
362.71 K, 16000 kPa, x2 = 0.7526	710.84
362.71 K, 17000 kPa, x2 = 0.7526	711.92
362.71 K, 18000 kPa, x2 = 0.7526	712.98
362.71 K, 19000 kPa, x2 = 0.7526	714.02
362.71 K, 20000 kPa, x2 = 0.7526	715.03
362.8 K, 1000 kPa, x2 = 0.2507	676.12
362.8 K, 2000 kPa, x2 = 0.2507	677.34
362.8 K, 3000 kPa, x2 = 0.2507	678.55
362.8 K, 4000 kPa, x2 = 0.2507	679.73
362.8 K, 5000 kPa, x2 = 0.2507	680.92
362.8 K, 6000 kPa, x2 = 0.2507	682.09
362.8 K, 7000 kPa, x2 = 0.2507	683.25
362.8 K, 8000 kPa, x2 = 0.2507	684.4
362.8 K, 9000 kPa, x2 = 0.2507	685.54
362.8 K, 10000 kPa, x2 = 0.2507	686.66
362.8 K, 11000 kPa, x2 = 0.2507	687.77
362.8 K, 12000 kPa, x2 = 0.2507	688.85
362.8 K, 13000 kPa, x2 = 0.2507	689.91
362.8 K, 14000 kPa, x2 = 0.2507	691.02
362.8 K, 15000 kPa, x2 = 0.2507	692.02
362.8 K, 16000 kPa, x2 = 0.2507	693.05
362.8 K, 17000 kPa, x2 = 0.2507	694.06
362.8 K, 18000 kPa, x2 = 0.2507	695.04
362.8 K, 19000 kPa, x2 = 0.2507	696.01
362.8 K, 20000 kPa, x2 = 0.2507	696.96
